Assay results: ChEMBL document CHEMBL4706478, “Design, Synthesis, and Preclinical Evaluation of Fused Pyrimidine-Based Hydroxamates for the Treatment of Hepatocellular Carcinoma” (J Med Chem, 2018)

What was measured:
[1] = physchem; details: n-octanol/water, pH 7.4
[2] = AUC (0 to infinity) in Balb/c mouse at 50 mg/kg, iv by mass spectrometry; assay type: ADME, organism-based; parameters: route intravenous, time infinity, dose 50 mg/kg; details: in vivo
[3] = AUC (0 to infinity) in Balb/c mouse at 50 mg/kg, po by mass spectrometry; assay type: ADME, organism-based; parameters: route oral, time infinity, dose 50 mg/kg; details: in vivo
[4] = AUC (0 to infinity) in Balb/c mouse at 150 mg/kg, po by mass spectrometry; assay type: ADME, organism-based; parameters: route oral, time infinity, dose 150 mg/kg; details: in vivo
[5] = Tmax in Balb/c mouse at 50 mg/kg, po by mass spectrometry; assay type: ADME, organism-based; details: in vivo
[6] = Tmax in Balb/c mouse at 150 mg/kg, po by mass spectrometry; assay type: ADME, organism-based; details: in vivo
[7] = Cmax in Balb/c mouse at 50 mg/kg, po by mass spectrometry; assay type: ADME, organism-based; parameters: route oral, dose 50 mg/kg; details: in vivo
[8] = Cmax in Balb/c mouse at 150 mg/kg, po by mass spectrometry; assay type: ADME, organism-based; parameters: route oral, dose 150 mg/kg; details: in vivo
[9] = Clearance in Balb/c mouse at 50 mg/kg, iv by mass spectrometry; assay type: ADME, organism-based; details: in vivo
[10] = Volume of distribution at steady state in Balb/c mouse at 50 mg/kg, iv by mass spectrometry; assay type: ADME, organism-based; details: in vivo, read-out: Vdss
[11] = Oral bioavailability in Balb/c mouse at 50 mg/kg by mass spectrometry; assay type: ADME, organism-based; details: in vivo
[12] = Oral bioavailability in Balb/c mouse at 150 mg/kg by mass spectrometry; assay type: ADME, organism-based; details: in vivo
[13] = in vitro; details: human, pooled liver microsomes
[14] = in vitro; details: mouse, liver microsomes
[15] = in vitro; details: rat, liver microsomes

SMILES: COc1ccc(-c2nc(N3CCOCC3)c3sc(CN(C)c4ncc(C(=O)NO)cn4)cc3n2)cn1 [FIMEPINOSTAT]
- logD [1]: 3.07

SMILES: O=C(CCCCCCn1cnc2c(N3CCOCC3)nc(-c3cccc(CO)c3)nc21)NO
- AUC(0-inf) [2]: 16.7 µM·h
- AUC(0-inf) [3]: 0.97 µM·h
- AUC(0-inf) [4]: 9.06 µM·h
- Tmax [5]: 10.2 min
- Tmax [6]: 30 min
- Cmax [7]: 3.9 µM
- Cmax [8]: 10.1 µM
- clearance [9]: 110 mL/min/kg
- Vd [10]: 3.06 L/kg
- bioavailability [11]: 5.8%
- bioavailability [12]: 18.1%
- logD [1]: 2.07

SMILES: O=C(CCCCCCC(=O)Nc1ccccc1)NO [VORINOSTAT]
- logD [1]: 1.05

SMILES: Nc1ncc(-c2nc(N3CCOCC3)c3ncn(CCCCCCC(=O)NO)c3n2)cn1
- half-life at 1 h, 5 µM [13]: > 60 min
- half-life at 1 h, 5 µM [14]: > 60 min
- half-life at 1 h, 5 µM [15]: 35 min
